What all share (assay type): toxicity, cell-based
Data set [1] concerns U2OS. Put plainly: Incucyte cell viability with U2OS. Conditions: human, 10 µM, compound concentration 10 uM.
The test system of data set [2] is HEK-293T. Put plainly: Incucyte cell viability with HEK293T. Conditions: human, 10 µM, compound concentration 10 uM.
The subject of data set [3] is Fibroblast. Put plainly: Incucyte cell viability with human fibroblast. As to conditions: 10 µM, compound concentration 10 uM.

Experimental findings from ChEMBL document CHEMBL5303304, “EUbOPEN Chemogenomics Library - IncuCyte” (2023) are described below.
Further: unitless GR value; below 1 slowed growth and below 0 cell loss.

`O=C(NCc1ccc(F)cc1)C1CCN(S(=O)(=O)c2cc(Cl)cc(Cl)c2)CC1`: the “Growth Rate” value in data set [1] (0 h, replicate number 2) turned out to be 0.76; in data set [1] (6 h, replicate number 1) it was 0.81; in data set [1] (6 h, replicate number 2), 0.72; in data set [1] (12 h, replicate number 1) it was 0.86; in data set [1] (12 h, replicate number 2), 0.98; in data set [1] (18 h, replicate number 1), 0.9. The “Growth Rate” value in data set [1] (18 h, replicate number 2) was 0.98; in data set [1] (24 h, replicate number 2), 0.98; in data set [2] (0 h, replicate number 2) it was -0.42; in data set [2] (6 h, replicate number 1) it was 0.66; in data set [2] (12 h, replicate number 1), 0.95; in data set [2] (18 h, replicate number 1) it was 0.7. Further, the “Growth Rate” value was determined as 0.78 in data set [2] (24 h, replicate number 1); 0.31 in data set [3] (0 h, replicate number 2); 0.84 in data set [3] (6 h, replicate number 1); 0.58 in data set [3] (12 h, replicate number 1); 0.3 in data set [3] (12 h, replicate number 2); 0.84 in data set [3] (18 h, replicate number 1). Further, the “Growth Rate” value was 0.46 in data set [3] (18 h, replicate number 2); 0.76 in data set [3] (24 h, replicate number 1); 0.67 in data set [3] (24 h, replicate number 2).
For `Cc1csc(-c2nnc(Nc3ccc(Oc4ncccc4-c4ccnc(N)n4)cc3)c3ccccc23)c1` [AMG-900], the “Growth Rate” value was found to be 0.79 in data set [1] (6 h, replicate number 1); 0.9 in data set [1] (6 h, replicate number 2); 0.57 in data set [1] (12 h, replicate number 1); 0.16 in data set [1] (12 h, replicate number 2); 0.27 in data set [1] (18 h, replicate number 1); 0.17 in data set [1] (18 h, replicate number 2). Moreover, the “Growth Rate” value in data set [1] (24 h, replicate number 1) is listed as 0.33; in data set [1] (24 h, replicate number 2), 0.41; in data set [2] (0 h, replicate number 1), -0.13; in data set [2] (0 h, replicate number 2) it was -0.21; in data set [3] (0 h, replicate number 2) it was -0.73; in data set [3] (12 h, replicate number 2), 0.98. In addition, in data set [3] (24 h, replicate number 1), the “Growth Rate” value stood at 0.75.
For the compound `C[C@@H]1COCCN1c1cc(=O)n2c(n1)N(Cc1cncc(Cl)c1)[C@H](C(F)(F)F)CC2`, the “Growth Rate” value stood at 0.01 in data set [1] (0 h, replicate number 1); 0.61 in data set [1] (6 h, replicate number 1); 0.92 in data set [1] (12 h, replicate number 1); 0.89 in data set [1] (12 h, replicate number 2); 0.87 in data set [1] (18 h, replicate number 1); 0.95 in data set [1] (18 h, replicate number 2). Further, the “Growth Rate” value was 0.73 in data set [1] (24 h, replicate number 1); -0.3 in data set [2] (6 h, replicate number 1); -0.11 in data set [2] (6 h, replicate number 2); 0.15 in data set [2] (12 h, replicate number 1); 0.44 in data set [2] (12 h, replicate number 2); 0.39 in data set [2] (18 h, replicate number 1). Further, the “Growth Rate” value is 0.54 in data set [2] (18 h, replicate number 2); 0.39 in data set [2] (24 h, replicate number 1); 0.45 in data set [2] (24 h, replicate number 2); -0.86 in data set [3] (0 h, replicate number 2); 0.36 in data set [3] (6 h, replicate number 1); -0.75 in data set [3] (6 h, replicate number 2). The “Growth Rate” value is on record as 0.72 in data set [3] (12 h, replicate number 1); 0.29 in data set [3] (12 h, replicate number 2); 0.92 in data set [3] (18 h, replicate number 1); 0.83 in data set [3] (24 h, replicate number 1).
For `CC(C)[C@H](CO)Nc1nc(Nc2ccc(C(=O)O)c(Cl)c2)c2ncn(C(C)C)c2n1` [PURVALANOL B], the “Growth Rate” value in data set [1] (0 h, replicate number 1) was -0.96; in data set [1] (0 h, replicate number 2), 0.8; in data set [1] (6 h, replicate number 2) it was 0.56; in data set [1] (12 h, replicate number 2), 0.95; in data set [2] (18 h, replicate number 1) it was 0.9; in data set [2] (24 h, replicate number 1), 1. In addition, the “Growth Rate” value in data set [3] (0 h, replicate number 1) is reported as -0.93; in data set [3] (18 h, replicate number 1), 0.88.
`CN1C(=O)c2ccccc2N(C)c2nc(Nc3cnn(C4CCNCC4)c3)ncc21`: the “Growth Rate” value is listed as 0.12 in data set [1] (0 h, replicate number 2); -0.35 in data set [1] (6 h, replicate number 1); 0.15 in data set [1] (6 h, replicate number 2); 0.07 in data set [1] (12 h, replicate number 1); 0.18 in data set [1] (12 h, replicate number 2); 0.07 in data set [1] (18 h, replicate number 1). For the same compound, the “Growth Rate” value in data set [1] (18 h, replicate number 2) is given as 0.23; in data set [1] (24 h, replicate number 1), 0.15; in data set [1] (24 h, replicate number 2) it was 0.24; in data set [2] (6 h, replicate number 1), -0.59; in data set [2] (6 h, replicate number 2) it was -0.85; in data set [2] (12 h, replicate number 1), -0.25. Moreover, the “Growth Rate” value in data set [2] (12 h, replicate number 2) is on record as -0.41; in data set [2] (18 h, replicate number 1), 0.19; in data set [2] (18 h, replicate number 2), -0.15; in data set [2] (24 h, replicate number 1) it was 0.37; in data set [2] (24 h, replicate number 2), 0.07; in data set [3] (0 h, replicate number 1), -0.99. Also, the “Growth Rate” value in data set [3] (0 h, replicate number 2) was -0.07; in data set [3] (12 h, replicate number 2) it was 0.94; in data set [3] (18 h, replicate number 2), 0.43; in data set [3] (24 h, replicate number 2) it was 0.43.
With `O=S1(=O)NCN(C2CC2)c2ccc(F)cc21`, the “Growth Rate” value in data set [1] (0 h, replicate number 1) was 0.05; in data set [1] (6 h, replicate number 1) it was 0.68; in data set [1] (6 h, replicate number 2), 0.82; in data set [1] (18 h, replicate number 1), 0.99; in data set [1] (18 h, replicate number 2), 0.88; in data set [1] (24 h, replicate number 1) it was 0.9. Further, the “Growth Rate” value is listed as 0.93 in data set [1] (24 h, replicate number 2); 0.98 in data set [2] (0 h, replicate number 1); 0.78 in data set [2] (0 h, replicate number 2); 0.62 in data set [2] (6 h, replicate number 2); 0.5 in data set [3] (0 h, replicate number 1); 0.39 in data set [3] (0 h, replicate number 2). The “Growth Rate” value is -0.11 in data set [3] (18 h, replicate number 1); 0.6 in data set [3] (24 h, replicate number 1); 0.91 in data set [3] (24 h, replicate number 2).
For the compound `NC(=O)c1ccc(-c2nc(-c3ccc4c(c3)OCCO4)c(-c3ccccn3)[nH]2)cc1`, the “Growth Rate” value was 0.21 in data set [1] (6 h, replicate number 1); 0.58 in data set [1] (12 h, replicate number 1); 0.94 in data set [1] (12 h, replicate number 2); 0.55 in data set [1] (18 h, replicate number 1); 0.86 in data set [1] (18 h, replicate number 2); 0.5 in data set [1] (24 h, replicate number 1). Moreover, the “Growth Rate” value is 0.75 in data set [1] (24 h, replicate number 2); 0.37 in data set [2] (6 h, replicate number 1); 0.65 in data set [2] (6 h, replicate number 2); 0.76 in data set [2] (12 h, replicate number 1); 0.81 in data set [2] (12 h, replicate number 2); 0.8 in data set [2] (18 h, replicate number 1). Further, the “Growth Rate” value is 0.74 in data set [2] (18 h, replicate number 2); 0.79 in data set [2] (24 h, replicate number 1); 0.86 in data set [2] (24 h, replicate number 2); -1 in data set [3] (0 h, replicate number 1); -0.85 in data set [3] (0 h, replicate number 2); 0.41 in data set [3] (6 h, replicate number 2). For the same compound, the “Growth Rate” value in data set [3] (12 h, replicate number 1) turned out to be 0.77; in data set [3] (12 h, replicate number 2), 0.45; in data set [3] (18 h, replicate number 2) it was 0.63; in data set [3] (24 h, replicate number 2), 0.74.
As for `O=C(NCc1cccc(O)c1)Nc1nc(-c2ccncc2)cs1`, the “Growth Rate” value in data set [1] (0 h, replicate number 2) was -0.94; in data set [1] (24 h, replicate number 1), 0.88; in data set [1] (24 h, replicate number 2), 1; in data set [2] (0 h, replicate number 1) it was -0.16; in data set [2] (0 h, replicate number 2), -0.82; in data set [3] (0 h, replicate number 2), -0.55. Also, the “Growth Rate” value in data set [3] (6 h, replicate number 1) is -1.
